Measurements from patent US7238701B2, “Substituted tetrahydrobenzothienopyrimidinamine compounds useful for treating hyper-proliferative disorders” (Bayer Pharmaceuticals Corporation, priority 2003, dated 2007).

Tests used:
[1] = system: A431cells (human epidermoid carcinoma); assay: In vitro tumor cell proliferation assay (Cell Titer-Glo luminescent cell viability), A431 cells; type: cell-based; settings: A-431, 72 h, 72 hours drug exposure, 10% Fetal Bovine Serum, ATP luminescence readout, read-out: IC50 (50% inhibition of cell proliferation)
From the text: (§1) In vitro Tumor Cell Proliferation Assay
(§2) The tumor cell proliferation assay used to test the compounds of the present invention involves a readout called Cell Titer-Glow® Luminescent Cell Viability Assay developed by Promega (Cunningham, B A “A Growing Issue: Cell Proliferation Assays, Modern kits ease quantification of cell growth” The Scientist 2001, 15(13), 26, and Crouch, S P et al., “The use of ATP bioluminescence as a measure of cell proliferation and cytotoxicity” Journal of Immunological Methods 1993, 160, 81–88), that measures inhibition of cell proliferation. Generation of a luminescent signal corresponds to the amount of ATP present, which is directly proportional to the number of metabolically active (proliferating) cells.
(§3) A431cells (human epidermoid carcinoma, ATCC # HTB-20) and BT474 (human breast carcinoma, ATCC # CRL-1555) were plated at a density of 2.5×10^3 cells/well in 96 well black-clear bottom tissue culture plates in RPMI media with 10% Fetal Bovine Serum and incubated at 37° C. Twenty-four hours later, test compounds are added at a final concentration range from as high 100 μM to as low 64 pM depend on the activities of the tested compounds in serial dilutions at a final DMSO concentration of 0.1%. Cells were incubated for 72 hours at 37° C. in complete growth media after addition of the test compound. After 72 hours of drug exposure, the plates were equilibrated to room temperature for approximately 30 min. Then, using a Promega Cell Titer Glo Luminescent® assay kit, lysis buffer containing 100 microliters of the enzyme luciferase and its substrate, luciferin mixture, was added to each well. The plates were mixed for 2 min on orbital shaker to ensure cell lysis and incubated for 10 min at room temperature to stabilize luminescence signal. The samples were read on VICTOR 2 using Luminescence protocol, and analyzed with Analyze5 software to generate IC50 values.

[2] = system: BT474 (human breast carcinoma); assay: In vitro tumor cell proliferation assay (Cell Titer-Glo luminescent cell viability), BT474 cells; type: cell-based; settings: BT-474, 72 hours drug exposure, 10% Fetal Bovine Serum, ATP luminescence readout, read-out: IC50 (50% inhibition of cell proliferation)
From the text: as §1, §2, §3

Row | SMILES | IC50 [1] | IC50 [2]
1 | C=CCNC(=O)C1CCc2c(sc3ncnc(Nc4cccc(Br)c4)c23)C1 (stereo not shown) [Example 56, N-allyl-4-[(3-bromophenyl)amino]-5,6,7,8-tetrahydro[1]benzothieno[2,3-d]pyrimidine-7-carboxamide] | < 50 µM | < 50 µM
2 | CCOC(=O)CC1CCc2c(sc3ncnc(Nc4ccc(F)c(Cl)c4)c23)C1 (stereo not shown) [Example 57, ethyl {4-[(3-chloro-4-fluorophenyl)amino]-5,6,7,8-tetrahydro[1]benzothieno[2,3-d]pyrimidin-7-yl}acetate] | < 50 µM | < 50 µM
3 | CN1CCN(C(=O)CC2CCc3c(sc4ncnc(Nc5ccc(F)c(Cl)c5)c34)C2)CC1 (stereo not shown) [Example 58, N-(3-chloro-4-fluorophenyl)-7-[2-(4-methyl-1-piperazinyl)-2-oxoethyl]-5,6,7,8-tetrahydro[1]benzothieno[2,3-d]pyrimidin-4-amine] | < 5 µM | < 5 µM
4 | CN1CCN(CCC2CCc3c(sc4ncnc(Nc5ccc(F)c(Cl)c5)c34)C2)CC1 (stereo not shown) [Example 59, N-(3-chloro-4-fluorophenyl)-7-[2-(4-methyl-1-piperazinyl)ethyl]-5,6,7,8-tetrahydro[1]benzothieno[2,3-d]pyrimidin-4-amine] | < 5 µM | < 5 µM
5 | CN(C)[C@@H]1CCN(C(=O)C2CCc3c(sc4ncnc(Nc5cccc(Br)c5)c34)C2)C1 (stereo partly drawn) [Example 60, N-(3-bromophenyl)-7-{[(3R)-3-(dimethylamino)-1-pyrrolidinyl]carbonyl}-5,6,7,8-tetrahydro[1]benzothieno[2,3-d]pyrimidin-4-amine] | < 5 µM | < 5 µM
6 | O=C(CC1CCc2c(sc3ncnc(Nc4ccc(F)c(Cl)c4)c23)C1)N1CCOCC1 (stereo not shown) [Example 61, N-(3-chloro-4-fluorophenyl)-7-[2-(4-morpholinyl)-2-oxoethyl]-5,6,7,8-tetrahydro[1]benzothieno[2,3-d]pyrimidin-4-amine] | < 5 µM | < 50 µM
7 | COCCNC(=O)CC1CCc2c(sc3ncnc(Nc4ccc(F)c(Cl)c4)c23)C1 (stereo not shown) [Example 62, 2-{4-[(3-chloro-4-fluorophenyl)amino]-5,6,7,8-tetrahydro[1]benzothieno[2,3-d]pyrimidin-7-yl}-N-(2-methoxyethyl)acetamide] | < 5 µM | < 5 µM
8 | CCOC(=O)CC1CCc2c(sc3ncnc(Nc4cccc(Br)c4)c23)C1 (stereo not shown) [Example 63, ethyl {4-[(3-bromophenyl)amino]-5,6,7,8-tetrahydro[1]benzothieno[2,3-d]pyrimidin-7-yl}acetate] | < 50 µM | < 50 µM
9 | OCCC1CCc2c(sc3ncnc(Nc4ccc(F)c(Cl)c4)c23)C1 (stereo not shown) [Example 64, 2-{4-[(3-chloro-4-fluorophenyl)amino]-5,6,7,8-tetrahydro[1]benzothieno[2,3-d]pyrimidin-7-yl}ethanol] | < 50 µM | < 50 µM
10 | O=C(O)CC1CCc2c(sc3ncnc(Nc4cccc(Br)c4)c23)C1 (stereo not shown) [Example 65, {4-[(3-bromophenyl)amino]-5,6,7,8tetrahydro[1]benzothieno[2,3-d]pyrimidin-7-yl}acetic acid] | < 50 µM | < 50 µM
11 | CN(C)[C@@H]1CCN(CC2CCc3c(sc4ncnc(Nc5cccc(Br)c5)c34)C2)C1 (stereo partly drawn) [Example 66, N-(3-bromophenyl)-7-{[(3R)-3-(dimethylamino)-1-pyrrolidinyl]methyl}-5,6,7,8-tetrahydro[1]benzothieno[2,3-d]pyrimidin-4-amine] | < 5 µM | < 5 µM
12 | O=C(CC1CCc2c(sc3ncnc(Nc4ccc(F)c(Cl)c4)c23)C1)N1CCCCC1 (stereo not shown) [Example 67, N-(3-chloro-4-fluorophenyl)-7-[2-oxo-2-(1-piperidinyl)ethyl]-5,6,7,8-tetrahydro[1]benzothieno[2,3-d]pyrimidin-4-amine] | < 50 µM | < 5 µM
13 | CN1CCN(C(=O)CC2CCc3c(sc4ncnc(Nc5cccc(Br)c5)c34)C2)CC1 (stereo not shown) [Example 68, N-(3-bromophenyl)-7-[2-(4-methyl-1-piperazinyl)-2-oxoethyl]-5,6,7,8-tetrahydro[1]benzothieno[2,3-d]pyrimidin-4-amine] | < 50 µM | < 50 µM
14 | O=C(CC1CCc2c(sc3ncnc(Nc4cccc(Br)c4)c23)C1)NCCN1CCOCC1 (stereo not shown) [Example 69] | < 50 µM | < 50 µM
15 | O=C(CC1CCc2c(sc3ncnc(Nc4cccc(Br)c4)c23)C1)N1CCOCC1 (stereo not shown) [Example 70] | < 5 µM | < 50 µM
16 | O=C(CC1CCc2c(sc3ncnc(Nc4cccc(Br)c4)c23)C1)N1CCCCC1 (stereo not shown) [Example 71, N-(3-bromophenyl)-7-[2-oxo-2-(1-piperidinyl)ethyl]-5,6,7,8-tetrahydro[1]benzothieno[2,3-d]pyrimidin-4-amine] | < 50 µM | < 50 µM
17 | O=C(O)CC1CCc2c(sc3ncnc(Nc4ccc(F)c(Cl)c4)c23)C1 (stereo not shown) [Example 72] | < 5 µM | < 50 µM
18 | Fc1ccc(Nc2ncnc3sc4c(c23)CCC(CCN2CCCCC2)C4)cc1Cl (stereo not shown) [Example 73, N-(3-chloro-4-fluorophenyl)-7-[2-(1-piperidinyl)ethyl]-5,6,7,8-tetrahydro[1]benzothieno[2,3-d]pyrimidin-4-amine] | < 5 µM | < 5 µM
19 | Fc1ccc(Nc2ncnc3sc4c(c23)CCC(CCN2CCCC2)C4)cc1Cl (stereo not shown) [Example 74, N-(3-chloro-4-fluorophenyl)-7-[2-(1-pyrrolidinyl)ethyl]-5,6,7,8-tetrahydro[1]benzothieno[2,3-d]pyrimidin-4-amine] | < 5 µM | < 5 µM
20 | COCCNCCC1CCc2c(sc3ncnc(Nc4ccc(F)c(Cl)c4)c23)C1 (stereo not shown) [Example 75, N-(3-chloro-4-fluorophenyl)-7-{2-[(2-methoxyethyl)amino]ethyl}-5,6,7,8-tetrahydro[1]benzothieno[2,3-d]pyrimidin-4-amine] | < 5 µM | < 5 µM
21 | COc1ccc(NCCC2CCc3c(sc4ncnc(Nc5ccc(F)c(Cl)c5)c34)C2)cc1 (stereo not shown) [Example 76, N-(3-chloro-4-fluorophenyl)-7-{2-[(4-methoxyphenyl)amino]ethyl}-5,6,7,8-tetrahydro[1]benzothieno[2,3-d]pyrimidin-4-amine] | < 50 µM | < 50 µM
22 | CS(=O)(=O)CCNC(=O)CC1CCc2c(sc3ncnc(Nc4cccc(Br)c4)c23)C1 (stereo not shown) [Example 77, 2-{4-[(3-bromophenyl)amino]-5,6,7,8-tetrahydro[1]benzothieno[2,3-d]pyrimidin-7-yl}-N-[2-(methylsulfonyl)ethyl]acetamide] | < 5 µM | < 5 µM
23 | Brc1cccc(Nc2ncnc3sc4c(c23)CCC(CCNCCN2CCOCC2)C4)c1 (stereo not shown) [Example 78, N-(3-bromophenyl)-7-(2-{[2-(4-morpholinyl)ethyl]amino}ethyl)-5,6,7,8-tetrahydro[1]benzothieno[2,3-d]pyrimidin-4-amine] | < 5 µM | < 5 µM
24 | Brc1cccc(Nc2ncnc3sc4c(c23)CCC(CCN2CCCCC2)C4)c1 (stereo not shown) [Example 79, N-(3-bromophenyl)-7-[2-(1-piperidinyl)ethyl]-5,6,7,8-tetrahydro[1]benzothieno[2,3-d]pyrimidin-4-amine] | < 5 µM | < 5 µM
25 | CN1CCN(CCC2CCc3c(sc4ncnc(Nc5cccc(Br)c5)c34)C2)CC1 (stereo not shown) [Example 80, N-(3-bromophenyl)-7-[2-(4-methyl-1-piperazinyl)ethyl]-5,6,7,8-tetrahydro[1]benzothieno[2,3-d]pyrimidin-4-amine] | < 5 µM | < 5 µM
26 | O=C(CC1CCc2c(sc3ncnc(Nc4cccc(Br)c4)c23)C1)N1CCCC1 (stereo not shown) [Example 81, N-(3-bromophenyl)-7-[2-oxo-2-(1-pyrrolidinyl)ethyl]-5,6,7,8-tetrahydro[1]benzothieno[2,3-d]pyrimidin-4-amine] | < 50 µM | < 50 µM
27 | COCCNC(=O)CC1CCc2c(sc3ncnc(Nc4cccc(Br)c4)c23)C1 (stereo not shown) [Example 82, 2-{4-[(3-bromophenyl)amino]-5,6,7,8-tetrahydro[1]benzothieno[2,3-d]pyrimidin-7-yl}-N-(2-methoxyethyl)acetamide] | < 5 µM | < 5 µM
28 | COCCN(C)C(=O)CC1CCc2c(sc3ncnc(Nc4cccc(Br)c4)c23)C1 (stereo not shown) [Example 83, 2-{4-[(3-bromophenyl)amino]-5,6,7,8-tetrahydro[1]benzothieno[2,3-d]pyrimidin-7-yl}-N-(2-methoxyethyl)-N-methylacetamide] | < 5 µM | < 50 µM
29 | CS(=O)(=O)CCNCCC1CCc2c(sc3ncnc(Nc4cccc(Br)c4)c23)C1 (stereo not shown) [Example 84, N-(3-bromophenyl)-7-(2-{[2-(methylsulfonyl)ethyl]amino}ethyl)-5,6,7,8-tetrahydro[1]benzothieno[2,3-d]pyrimidin-4-amine] | < 5 µM | < 5 µM
